Each block holds one molecule with its values, some of them ahead of it.
Test: CCC extraction with DME of clarified fermentation broth from Clostridium acetobutylicum, GC and DNS assay
Assay type: physicochemical
Experimental: This example describes three different runs of the CCC with fermentation broth from Clostridium acetobutylicum. […] The fermentation was intentionally interrupted prior to completion.
The extraction column operated at room temperature (˜25° C.) throughout the column. Periodic extract and raffinate samples were taken and analyzed for the constituents in the extract and raffinate discharges.
This example describes three different runs. In all cases, the mass of solvent to the mass of feed ratio (S/F) was 0.9. In all example the fermentation broth was first centrifuged to removal all cellular matter. Thus, the feed solution was clarified. In the case of the first run, the following components were measured via gas chromatograph (GC) analysis using external standard calibration. The external standard was run prior to analyzing the samples to provide individual calibration between peak area and the respective constituent under measure. […] Acetate was the conjugate base of acetic acid. Butyrate was the conjugate base of butyric acid. All components were quantified in the extract and raffinate. Since the extract and raffinate are mostly water and DME dissolves in water to approximately 20 wt. %, the samples were allowed to degas over a 24 hour period.
During the run, samples were taken of the extract and raffinate. In the case of the extract, the bulk DME was removed by reduction of pressure and addition of heat to flash the DME from the water and other solution constituents.
Extract and raffinate samples were collected at periodic intervals during the CCC testing. […] Glucose was measured via a DNS (3,5-dinitrosalicylic acid) assay.
In cases where the extract formed a two phase solution, the extract samples were diluted with distilled water to create a single phase and homogenous sample prior to GC. The dilution factor was then used to correct the GC measurements for concentrations prior to dilution.

[1] = Run 3, Extract Bot, time 31 min
[2] = Run 3, Extract Bot, time 37 min
[3] = Run 3, Extract Top, time 31 min
[4] = Run 3, Extract Top, time 37 min

extraction into DME (Run 1, pH greater than 5.5): not extracted
concentration in sample [1]: 480 µg/mL
concentration in sample [2]: 0 µg/mL
concentration in sample [3]: 400 µg/mL
concentration in sample [4]: 370 µg/mL
concentration in sample (Run 3, Extract, time 22 min): 410 µg/mL
concentration in sample (Run 3, Extract, time 27 min): 0 µg/mL
concentration in sample (Run 3, Extract, time 43 min): 480 µg/mL
concentration in sample (Run 3, Extract, time 70 min): 400 µg/mL
concentration in sample (Run 3, Extract, time 74 min): 0 µg/mL
concentration in sample (Run 3, Extract, time 78 min): 550 µg/mL
concentration in sample (Run 3, Extract, time 82 min): 400 µg/mL
concentration in sample (Run 3, Feed, time 0 min): 5470 µg/mL
concentration in sample (Run 3, Raffinate, time 22 min): 6780 µg/mL
concentration in sample (Run 3, Raffinate, time 27 min): 5370 µg/mL
concentration in sample (Run 3, Raffinate, time 31 min): 6420 µg/mL
concentration in sample (Run 3, Raffinate, time 37 min): 6010 µg/mL
concentration in sample (Run 3, Raffinate, time 43 min): 7110 µg/mL
concentration in sample (Run 3, Raffinate, time 70 min): 6840 µg/mL
concentration in sample (Run 3, Raffinate, time 74 min): 7770 µg/mL
concentration in sample (Run 3, Raffinate, time 78 min): 7070 µg/mL
concentration in sample (Run 3, Raffinate, time 82 min): 7290 µg/mL
Compound: CC(=O)O [acetate]

concentration in sample [1]: 2290 µg/mL
concentration in sample [2]: 2590 µg/mL
concentration in sample [3]: 1980 µg/mL
concentration in sample [4]: 2110 µg/mL
concentration in sample (Run 3, Extract, time 22 min): 1130 µg/mL
concentration in sample (Run 3, Extract, time 27 min): 1530 µg/mL
concentration in sample (Run 3, Extract, time 43 min): 2110 µg/mL
concentration in sample (Run 3, Extract, time 70 min): 1850 µg/mL
concentration in sample (Run 3, Extract, time 74 min): 1710 µg/mL
concentration in sample (Run 3, Extract, time 78 min): 1700 µg/mL
concentration in sample (Run 3, Extract, time 82 min): 1920 µg/mL
concentration in sample (Run 3, Feed, time 0 min): 800 µg/mL
concentration in sample (Run 3, Raffinate, time 22 min): 340 µg/mL
concentration in sample (Run 3, Raffinate, time 27 min): 400 µg/mL
concentration in sample (Run 3, Raffinate, time 31 min): 420 µg/mL
concentration in sample (Run 3, Raffinate, time 37 min): 640 µg/mL
concentration in sample (Run 3, Raffinate, time 43 min): 890 µg/mL
concentration in sample (Run 3, Raffinate, time 70 min): 1560 µg/mL
concentration in sample (Run 3, Raffinate, time 74 min): 710 µg/mL
concentration in sample (Run 3, Raffinate, time 78 min): 240 µg/mL
concentration in sample (Run 3, Raffinate, time 82 min): 1140 µg/mL
Compound: CCO [Ethanol, ethanol]

distribution coefficients compared (Run 2, isobutanol versus butanol): approximately equal
Ratio of I/N (isobutanol/n-butanol) [1]: 1.16
concentration in sample [1]: 39300 µg/mL
Ratio of I/N (isobutanol/n-butanol) [2]: 1.15
concentration in sample [2]: 39690 µg/mL
Ratio of I/N (isobutanol/n-butanol) [3]: 1.04
concentration in sample [3]: 316670 µg/mL
Ratio of I/N (isobutanol/n-butanol) [4]: 1.03
concentration in sample [4]: 328990 µg/mL
Ratio of I/N (isobutanol/n-butanol) (Run 3, Extract, time 22 min): 0.98
concentration in sample (Run 3, Extract, time 22 min): 18650 µg/mL
Ratio of I/N (isobutanol/n-butanol) (Run 3, Extract, time 27 min): 1.10
concentration in sample (Run 3, Extract, time 27 min): 35800 µg/mL
Ratio of I/N (isobutanol/n-butanol) (Run 3, Extract, time 43 min): 1.07
concentration in sample (Run 3, Extract, time 43 min): 35340 µg/mL
Ratio of I/N (isobutanol/n-butanol) (Run 3, Extract, time 70 min): 1.05
concentration in sample (Run 3, Extract, time 70 min): 30950 µg/mL
Ratio of I/N (isobutanol/n-butanol) (Run 3, Extract, time 74 min): 1.02
concentration in sample (Run 3, Extract, time 74 min): 31830 µg/mL
Ratio of I/N (isobutanol/n-butanol) (Run 3, Extract, time 78 min): 1.01
concentration in sample (Run 3, Extract, time 78 min): 33190 µg/mL
Ratio of I/N (isobutanol/n-butanol) (Run 3, Extract, time 82 min): 1.02
concentration in sample (Run 3, Extract, time 82 min): 37480 µg/mL
Ratio of I/N (isobutanol/n-butanol) (Run 3, Feed, time 0 min): 1.24
concentration in sample (Run 3, Feed, time 0 min): 11650 µg/mL
Ratio of I/N (isobutanol/n-butanol) (Run 3, Raffinate, time 22 min): 1.34
concentration in sample (Run 3, Raffinate, time 22 min): 2720 µg/mL
Ratio of I/N (isobutanol/n-butanol) (Run 3, Raffinate, time 27 min): 1.22
concentration in sample (Run 3, Raffinate, time 27 min): 380 µg/mL
Ratio of I/N (isobutanol/n-butanol) (Run 3, Raffinate, time 31 min): 1.28
concentration in sample (Run 3, Raffinate, time 31 min): 380 µg/mL
Ratio of I/N (isobutanol/n-butanol) (Run 3, Raffinate, time 37 min): 1.29
concentration in sample (Run 3, Raffinate, time 37 min): 230 µg/mL
Ratio of I/N (isobutanol/n-butanol) (Run 3, Raffinate, time 43 min): 1.42
concentration in sample (Run 3, Raffinate, time 43 min): 230 µg/mL
Ratio of I/N (isobutanol/n-butanol) (Run 3, Raffinate, time 70 min): 1.37
concentration in sample (Run 3, Raffinate, time 70 min): 430 µg/mL
Ratio of I/N (isobutanol/n-butanol) (Run 3, Raffinate, time 74 min): 1.45
concentration in sample (Run 3, Raffinate, time 74 min): 480 µg/mL
Ratio of I/N (isobutanol/n-butanol) (Run 3, Raffinate, time 78 min): 1.41
concentration in sample (Run 3, Raffinate, time 78 min): 480 µg/mL
Ratio of I/N (isobutanol/n-butanol) (Run 3, Raffinate, time 82 min): 1.44
concentration in sample (Run 3, Raffinate, time 82 min): 480 µg/mL
Compound: CC(C)CO [isobutanol, 2-methyl-1-propanol]

Reference: patent US9630894B2, “Energy efficient method and apparatus for the extraction of biomolecules from dilute aqueous solution” (DYNASEP INC., priority 2012, dated 2017)
